Experiments:
[1] = biological target: STE20-like serine/threonine-protein kinase (Homo sapiens, UniProt Q9H2G2); experiment: Selectivity interaction (KinomeScan (DiscoverX)) EUB0000229b SLK; details: at 10 µM
[2] = biological target: Tyrosine-protein kinase ABL1 (Homo sapiens, UniProt P00519); experiment: Selectivity interaction (KinomeScan (DiscoverX)) EUB0000655a ABL1; details: at 10 µM
[3] = biological target: Insulin-like growth factor 1 receptor (Homo sapiens, UniProt P08069); experiment: Selectivity interaction (ProQinase) EUB0000171b IGF1R
Insulin-like growth factor 1 receptor, sequence (P08069 31-736 limits assumed): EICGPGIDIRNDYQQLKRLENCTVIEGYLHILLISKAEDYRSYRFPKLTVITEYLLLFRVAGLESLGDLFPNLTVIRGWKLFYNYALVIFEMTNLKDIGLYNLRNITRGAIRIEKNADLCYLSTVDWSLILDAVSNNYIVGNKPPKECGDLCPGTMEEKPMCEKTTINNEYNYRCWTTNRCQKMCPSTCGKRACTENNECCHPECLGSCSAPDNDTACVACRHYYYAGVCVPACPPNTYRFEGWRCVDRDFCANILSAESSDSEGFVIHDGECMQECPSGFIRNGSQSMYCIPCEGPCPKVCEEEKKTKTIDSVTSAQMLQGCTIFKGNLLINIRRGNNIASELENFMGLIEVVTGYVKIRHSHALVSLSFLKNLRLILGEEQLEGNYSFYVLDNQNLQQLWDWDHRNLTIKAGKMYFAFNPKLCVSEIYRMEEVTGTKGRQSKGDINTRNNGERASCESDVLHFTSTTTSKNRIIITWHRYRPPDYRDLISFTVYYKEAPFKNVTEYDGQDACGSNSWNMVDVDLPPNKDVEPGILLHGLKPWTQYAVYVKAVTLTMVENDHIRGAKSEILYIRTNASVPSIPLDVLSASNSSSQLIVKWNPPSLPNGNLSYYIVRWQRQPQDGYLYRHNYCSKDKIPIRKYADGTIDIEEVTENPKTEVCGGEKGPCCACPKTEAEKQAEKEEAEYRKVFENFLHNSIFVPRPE
Insulin-like growth factor 1 receptor, sequence (P08069 741-1367 limits assumed): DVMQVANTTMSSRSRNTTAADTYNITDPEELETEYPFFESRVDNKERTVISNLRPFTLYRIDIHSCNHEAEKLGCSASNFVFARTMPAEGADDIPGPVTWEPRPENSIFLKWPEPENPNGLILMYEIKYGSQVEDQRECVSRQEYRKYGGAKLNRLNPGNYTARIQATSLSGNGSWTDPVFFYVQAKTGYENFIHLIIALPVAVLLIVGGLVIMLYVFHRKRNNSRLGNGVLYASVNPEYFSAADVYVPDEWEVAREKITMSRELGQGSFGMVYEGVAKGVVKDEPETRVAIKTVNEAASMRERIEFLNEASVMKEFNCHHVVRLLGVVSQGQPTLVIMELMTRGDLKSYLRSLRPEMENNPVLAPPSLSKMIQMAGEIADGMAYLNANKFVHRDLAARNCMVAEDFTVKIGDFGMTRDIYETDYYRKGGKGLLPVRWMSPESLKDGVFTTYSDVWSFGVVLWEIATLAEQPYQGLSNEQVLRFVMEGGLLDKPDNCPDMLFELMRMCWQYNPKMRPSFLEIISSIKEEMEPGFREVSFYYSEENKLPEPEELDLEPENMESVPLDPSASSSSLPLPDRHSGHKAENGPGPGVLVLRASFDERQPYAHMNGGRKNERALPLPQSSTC

[4] = biological target: SRSF protein kinase 2 (Homo sapiens) (UniProt P78362); experiment: Selectivity interaction (ProQinase) EUB0000171b SRPK2
SRSF protein kinase 2 (Homo sapiens), sequence (P78362 whole entry, looked up): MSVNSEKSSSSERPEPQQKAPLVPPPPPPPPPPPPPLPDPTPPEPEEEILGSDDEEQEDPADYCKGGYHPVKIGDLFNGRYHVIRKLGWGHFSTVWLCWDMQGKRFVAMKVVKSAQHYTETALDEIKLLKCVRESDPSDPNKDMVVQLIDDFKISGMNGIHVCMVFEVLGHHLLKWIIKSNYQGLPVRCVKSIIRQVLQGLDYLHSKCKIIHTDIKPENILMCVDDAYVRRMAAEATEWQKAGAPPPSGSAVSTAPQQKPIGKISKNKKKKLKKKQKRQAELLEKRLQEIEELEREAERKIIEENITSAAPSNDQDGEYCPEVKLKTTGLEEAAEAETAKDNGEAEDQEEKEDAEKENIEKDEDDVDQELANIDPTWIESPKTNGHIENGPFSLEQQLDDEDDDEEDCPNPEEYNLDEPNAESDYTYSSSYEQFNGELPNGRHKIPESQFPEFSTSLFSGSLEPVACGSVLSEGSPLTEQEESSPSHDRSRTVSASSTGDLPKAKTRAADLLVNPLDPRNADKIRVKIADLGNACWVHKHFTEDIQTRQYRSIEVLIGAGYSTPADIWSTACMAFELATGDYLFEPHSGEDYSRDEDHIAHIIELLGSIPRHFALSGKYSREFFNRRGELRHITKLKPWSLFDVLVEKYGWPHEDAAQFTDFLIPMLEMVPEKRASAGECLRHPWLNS

[5] = biological target: Tyrosine-protein kinase Fer (Homo sapiens) (UniProt P16591); experiment: Selectivity interaction (KinomeScan (DiscoverX)) EUB0000666a FER; details: at 10 µM
[6] = biological target: 5'-AMP-activated protein kinase catalytic subunit alpha-1 (Homo sapiens, UniProt Q13131); experiment: Selectivity interaction (KinomeScan (DiscoverX)) EUB0000666a PRKAA1; details: at 10 µM
[7] = biological target: T1, Mitogen-activated protein kinase 13 (Homo sapiens) (UniProt O15264); details: at 10 µM
T1 sequence (whole entry): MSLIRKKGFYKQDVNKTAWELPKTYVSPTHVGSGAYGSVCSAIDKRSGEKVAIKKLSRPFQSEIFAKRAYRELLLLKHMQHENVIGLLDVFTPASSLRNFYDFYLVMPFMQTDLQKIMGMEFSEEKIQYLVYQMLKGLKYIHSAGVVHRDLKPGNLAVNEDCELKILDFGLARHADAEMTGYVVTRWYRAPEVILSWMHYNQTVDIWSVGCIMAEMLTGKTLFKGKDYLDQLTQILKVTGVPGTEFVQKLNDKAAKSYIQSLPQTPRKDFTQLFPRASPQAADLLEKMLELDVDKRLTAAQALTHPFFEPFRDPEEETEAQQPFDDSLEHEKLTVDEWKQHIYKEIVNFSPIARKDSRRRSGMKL

[8] = biological target: Glycogen synthase kinase-3 alpha (Homo sapiens, UniProt P49840); experiment: Selectivity interaction (Competition-binding assay (DiscoverX)) EUB0001632a GSK3A
[9] = biological target: Cyclin-dependent kinase-like 3 (Homo sapiens) (UniProt Q8IVW4); experiment: Selectivity interaction (KinomeScan (DiscoverX)) EUB0000607a CDKL3; details: at 10 µM
[10] = biological target: Serine/threonine-protein kinase PLK3 (Homo sapiens, UniProt Q9H4B4); experiment: Selectivity interaction (SelectScreen profiling (Invitrogen)) EUB0000607a PLK3; details: at 2 µM
[11] = Selectivity interaction (KinomeScan (DiscoverX)) EUB0000695a CDK2H; details: at 100 nM
[12] = biological target: Phosphatidylinositol 4,5-bisphosphate 3-kinase catalytic subunit beta isoform (Homo sapiens) (UniProt P42338); experiment: Selectivity interaction (KinomeScan (DiscoverX)) EUB0000695a PIK3CB; details: at 100 nM
[13] = biological target: T2, Serine/threonine-protein kinase Sgk3 (Homo sapiens) (UniProt Q96BR1); experiment: Selectivity interaction (KinomeScan (DiscoverX)) EUB0000695a SGK3; details: at 100 nM
T2 sequence (whole entry): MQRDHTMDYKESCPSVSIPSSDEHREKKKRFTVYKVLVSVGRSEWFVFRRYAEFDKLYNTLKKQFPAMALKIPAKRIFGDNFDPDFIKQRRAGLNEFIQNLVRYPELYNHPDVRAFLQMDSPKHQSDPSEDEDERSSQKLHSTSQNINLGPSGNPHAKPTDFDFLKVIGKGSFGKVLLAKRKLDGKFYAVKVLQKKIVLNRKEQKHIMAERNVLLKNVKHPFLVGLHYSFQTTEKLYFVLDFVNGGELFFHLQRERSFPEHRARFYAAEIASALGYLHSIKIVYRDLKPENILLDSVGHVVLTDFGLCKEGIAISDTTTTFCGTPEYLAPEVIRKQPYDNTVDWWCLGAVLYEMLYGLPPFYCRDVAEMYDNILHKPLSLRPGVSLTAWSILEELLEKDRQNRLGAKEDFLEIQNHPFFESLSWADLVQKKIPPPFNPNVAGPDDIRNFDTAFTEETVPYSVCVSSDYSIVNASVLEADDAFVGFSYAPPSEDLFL

[14] = biological target: Tyrosine-protein kinase Fyn (Homo sapiens) (UniProt P06241); details: at 10 µM
[15] = tested on: eIF-2-alpha kinase GCN2 (Homo sapiens), Q9P2K8 [S808G]; experiment: Selectivity interaction (KinomeScan (DiscoverX)) EUB0000045b EIF2AK4
eIF-2-alpha kinase GCN2 (Homo sapiens), Q9P2K8 [S808G], sequence (Q9P2K8 whole entry S808G): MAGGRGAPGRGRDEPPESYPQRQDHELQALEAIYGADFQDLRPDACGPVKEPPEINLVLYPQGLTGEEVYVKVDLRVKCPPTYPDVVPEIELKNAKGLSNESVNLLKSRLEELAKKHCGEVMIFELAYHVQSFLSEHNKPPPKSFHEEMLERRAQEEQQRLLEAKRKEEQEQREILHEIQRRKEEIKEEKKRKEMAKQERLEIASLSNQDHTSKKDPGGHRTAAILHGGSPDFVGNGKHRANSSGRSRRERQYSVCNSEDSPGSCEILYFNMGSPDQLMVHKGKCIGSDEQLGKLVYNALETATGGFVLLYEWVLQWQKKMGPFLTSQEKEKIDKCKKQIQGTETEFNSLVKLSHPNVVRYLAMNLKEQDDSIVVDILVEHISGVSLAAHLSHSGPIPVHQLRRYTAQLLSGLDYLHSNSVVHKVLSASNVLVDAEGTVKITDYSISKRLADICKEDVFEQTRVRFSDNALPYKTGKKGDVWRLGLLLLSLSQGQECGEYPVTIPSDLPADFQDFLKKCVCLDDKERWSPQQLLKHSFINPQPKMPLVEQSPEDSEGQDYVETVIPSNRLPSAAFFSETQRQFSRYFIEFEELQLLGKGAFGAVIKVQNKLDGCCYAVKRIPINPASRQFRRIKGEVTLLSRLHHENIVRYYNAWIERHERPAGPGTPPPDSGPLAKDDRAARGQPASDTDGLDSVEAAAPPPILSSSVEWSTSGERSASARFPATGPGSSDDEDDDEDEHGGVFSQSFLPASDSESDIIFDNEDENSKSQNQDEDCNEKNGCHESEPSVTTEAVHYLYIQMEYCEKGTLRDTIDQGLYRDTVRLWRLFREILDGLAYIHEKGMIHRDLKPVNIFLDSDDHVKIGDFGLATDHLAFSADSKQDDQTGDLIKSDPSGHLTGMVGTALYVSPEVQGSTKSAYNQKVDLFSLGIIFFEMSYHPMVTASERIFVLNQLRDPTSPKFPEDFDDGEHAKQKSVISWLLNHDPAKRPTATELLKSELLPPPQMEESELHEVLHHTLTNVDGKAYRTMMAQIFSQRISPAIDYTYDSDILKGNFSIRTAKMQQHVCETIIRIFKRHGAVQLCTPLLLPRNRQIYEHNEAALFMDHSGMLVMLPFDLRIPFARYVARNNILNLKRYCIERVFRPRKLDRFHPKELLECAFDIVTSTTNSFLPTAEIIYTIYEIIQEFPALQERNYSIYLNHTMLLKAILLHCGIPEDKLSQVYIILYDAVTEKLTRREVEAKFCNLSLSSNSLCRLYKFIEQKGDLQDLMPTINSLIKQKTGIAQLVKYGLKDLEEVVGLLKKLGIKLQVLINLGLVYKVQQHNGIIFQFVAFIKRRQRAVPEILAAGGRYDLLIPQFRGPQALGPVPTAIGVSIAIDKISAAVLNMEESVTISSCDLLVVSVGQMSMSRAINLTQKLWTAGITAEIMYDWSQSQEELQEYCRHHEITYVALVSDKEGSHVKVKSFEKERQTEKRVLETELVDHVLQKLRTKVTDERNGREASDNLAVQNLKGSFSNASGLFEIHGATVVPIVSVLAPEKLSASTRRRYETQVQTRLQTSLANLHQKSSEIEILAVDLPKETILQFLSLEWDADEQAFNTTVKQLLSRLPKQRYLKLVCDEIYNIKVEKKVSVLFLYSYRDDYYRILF

[16] = biological target: Serine/threonine-protein kinase PLK2 (Homo sapiens, UniProt Q9NYY3); experiment: Selectivity interaction (KinomeScan (DiscoverX)) EUB0000045b PLK2
Serine/threonine-protein kinase PLK2, sequence (Q9NYY3 whole entry, looked up): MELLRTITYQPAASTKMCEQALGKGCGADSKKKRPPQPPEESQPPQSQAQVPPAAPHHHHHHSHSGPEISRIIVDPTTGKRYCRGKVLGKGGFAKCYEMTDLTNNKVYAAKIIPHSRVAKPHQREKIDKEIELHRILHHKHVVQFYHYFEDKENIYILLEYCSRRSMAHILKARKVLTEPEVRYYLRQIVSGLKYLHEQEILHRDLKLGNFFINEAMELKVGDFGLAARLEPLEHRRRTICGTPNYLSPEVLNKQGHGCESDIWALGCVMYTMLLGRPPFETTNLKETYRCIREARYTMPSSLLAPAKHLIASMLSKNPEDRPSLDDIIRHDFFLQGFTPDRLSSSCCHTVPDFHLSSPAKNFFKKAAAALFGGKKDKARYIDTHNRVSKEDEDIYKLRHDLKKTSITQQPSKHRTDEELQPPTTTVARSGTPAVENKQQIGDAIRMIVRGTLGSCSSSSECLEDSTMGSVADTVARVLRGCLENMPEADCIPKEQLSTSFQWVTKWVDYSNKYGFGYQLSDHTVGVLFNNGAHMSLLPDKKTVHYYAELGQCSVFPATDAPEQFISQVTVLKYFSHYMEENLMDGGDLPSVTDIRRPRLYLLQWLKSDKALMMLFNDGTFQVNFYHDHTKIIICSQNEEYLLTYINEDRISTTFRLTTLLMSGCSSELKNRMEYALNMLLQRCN

[17] = biological target: Serine/threonine-protein kinase 32B (Homo sapiens) (UniProt Q9NY57); experiment: Selectivity interaction (KinomeScan (DiscoverX)) EUB0000045b STK32B
Serine/threonine-protein kinase 32B (Homo sapiens), sequence (Q9NY57 whole entry): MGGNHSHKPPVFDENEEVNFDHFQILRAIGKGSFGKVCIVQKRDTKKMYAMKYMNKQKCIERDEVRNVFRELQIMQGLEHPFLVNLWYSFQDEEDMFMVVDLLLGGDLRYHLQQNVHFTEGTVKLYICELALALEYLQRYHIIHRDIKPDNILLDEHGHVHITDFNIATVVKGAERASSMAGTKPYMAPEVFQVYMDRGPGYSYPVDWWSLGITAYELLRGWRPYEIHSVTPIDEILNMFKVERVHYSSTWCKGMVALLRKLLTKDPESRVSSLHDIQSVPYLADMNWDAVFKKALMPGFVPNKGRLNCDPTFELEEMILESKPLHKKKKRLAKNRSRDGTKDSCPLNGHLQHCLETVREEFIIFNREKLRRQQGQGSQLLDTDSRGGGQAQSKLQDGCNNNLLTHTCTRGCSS

[18] = biological target: Ribosomal protein S6 kinase alpha-6 (Homo sapiens, UniProt Q9UK32); experiment: Selectivity interaction (Ambit KINOMEscan and KiNATiv profiling in Jurkat cells) EUB0000090b RPS6KA6; type: cell-based; details: at 1 µM
[19] = biological target: STE20/SPS1-related proline-alanine-rich protein kinase (Homo sapiens) (UniProt Q9UEW8); experiment: Selectivity interaction (Ambit KINOMEscan and KiNATiv profiling in Jurkat cells) EUB0000090b STK39; type: cell-based; details: at 1 µM
[20] = biological target: T3, Interleukin-1 receptor-associated kinase 3 (Homo sapiens) (UniProt Q9Y616); experiment: Selectivity interaction (KinomeScan (DiscoverX)) EUB0001619a IRAK3; details: at 1 µM
T3 sequence (whole entry): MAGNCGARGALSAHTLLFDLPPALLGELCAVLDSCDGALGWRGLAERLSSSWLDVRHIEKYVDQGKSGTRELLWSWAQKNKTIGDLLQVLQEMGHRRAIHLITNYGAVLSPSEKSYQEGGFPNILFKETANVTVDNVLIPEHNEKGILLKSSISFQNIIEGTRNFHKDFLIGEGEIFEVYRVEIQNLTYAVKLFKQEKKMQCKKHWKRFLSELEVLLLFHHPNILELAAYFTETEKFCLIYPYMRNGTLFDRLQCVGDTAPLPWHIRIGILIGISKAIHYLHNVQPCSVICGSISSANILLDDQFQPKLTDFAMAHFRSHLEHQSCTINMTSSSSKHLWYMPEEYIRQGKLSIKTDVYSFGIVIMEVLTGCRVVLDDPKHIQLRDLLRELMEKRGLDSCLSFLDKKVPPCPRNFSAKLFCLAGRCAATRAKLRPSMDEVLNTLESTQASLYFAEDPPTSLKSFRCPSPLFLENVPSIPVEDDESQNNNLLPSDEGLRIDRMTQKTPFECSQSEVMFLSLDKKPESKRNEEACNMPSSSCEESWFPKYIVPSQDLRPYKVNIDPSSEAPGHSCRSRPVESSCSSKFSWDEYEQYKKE

COc1cc(N(C)c2ccnc3ccc(C(F)(F)F)cc23)cc(OC)c1OC
% binding [1]: 31%

CN(C)CCOc1ccc(-c2nc(-c3ccncc3)c(-c3ccc4c(c3)CC/C4=N\O)[nH]2)cc1
% of control [2]: 6%

C=CC(=O)Nc1cccc(C(=O)Nc2ccc(Nc3cc(-c4[nH]c(SC)nc4C)ccn3)cc2)c1
% of control ([3]; at 1 µM): 92%
% of control ([3]; at 5 µM): 86%
% of control ([4]; at 1 µM): 82%
% of control ([4]; at 5 µM): 75%

O=C(NOC[C@H](O)CO)c1ccc(F)c(F)c1Nc1ccc(I)cc1F
% of control [5]: 100%
% of control [6]: 100%

Cc1cc([C@@H](C)Nc2ccccc2C(=O)O)c2nc(N3CCOCC3)cc(=O)n2c1 [AZD-6482]
% of control [7]: 87%

Cn1cc(-n2cnc3c(NCc4nc5cc(Cl)c(Cl)cc5[nH]4)nc(N4CCOCC4)nc32)cn1
Kd [8]: 1200 nM

CNC(=O)Nc1ccc(-c2nc(N3CC4CCC(C3)O4)c3cnn(C4CCC5(CC4)OCCO5)c3n2)cc1
% of control [9]: 95%
% of inhibition [10]: -11%

Cc1cc(F)c(C(=O)Nc2cccc(-c3nncn3C(C)C)n2)cc1-n1cnc(C2CC2)c1
% of control [11]: 92%
% of control [12]: 100%
% of control [13]: 100%

COCC(=O)NC/C=C/c1ccc2ncnc(Nc3ccc(Oc4ccc(C)nc4)c(C)c3)c2c1 [CP-724714]
% of control [14]: 100%

C=CC(=O)Nc1cc(-n2c(=O)ccc3cnc4ccc(-c5ccc(NS(C)(=O)=O)cc5)cc4c32)ccc1C
% of control ([15]; at 1 µM): 100%
% of control ([15]; at 10 µM): 84%
% of control ([16]; at 1 µM): 72%
% of control ([16]; at 10 µM): 86%
% of control ([17]; at 1 µM): 100%
% of control ([17]; at 10 µM): 100%

CN(C)C/C=C/C(=O)Nc1ccc(C(=O)N2CCCC(Nc3ncc(Cl)c(-c4c[nH]c5ccccc45)n3)C2)cc1 (stereo not given)
% of control [18]: 92%
% of control [19]: 95%

N#Cc1cccc(-c2c[nH]c3ncnc(N4CCOCC4)c23)c1
% of control [20]: 74%

Reference: ChEMBL document CHEMBL5465560, “Selectivity Literature for EUbOPEN Chemogenomic Library” (2024)
